# Laboratory results reported in patent US11786494B2, “Methods of modulation of branched chain acids and uses thereof” (Baylor College of Medicine, priority 2009, dated 2023).
# Like-named read-outs stand apart in the source and are kept apart here.
# Columns and labels:
# [1] = target: BCKDC kinase (BDK) (Rattus norvegicus, UniProt Q00972); assay: Protection of E1 from BDK induced phosphorylation and inactivation; type: biochemical; settings: for kcat, KIC / kcat, KIV / kcat, KMV / Km: E1 decarboxylase activity, [+] Phenylbutyrate^b
# Protocol: To determine the effect of phenylbutyrate on individual BCAA catabolic enzymes, activities of mitochondrial branched chain amino transferase (BCATm) and BCKDC enzymes were measured with and without phenylbutyrate using purified recombinant enzymes. BCATm generates the BCKA products that are elevated in MSUD and are the substrates for BCKDC. BCATm activity was measured at pH 8.0 and 298 K as described in Example 2. Kinetics of the E1 decarboxylase reaction with and without phenylbutyrate were determined in the presence of an artificial electron acceptor 2, 6-dichlorophenolindophenol (DCPIP). The assay mixture contained 100 mM potassium phosphate, pH 7.5, 2.0 mM MgCl2, 0.2 mM thiamin diphosphate (ThDP) and 0.1 mM DCPIP. The rate of decarboxylation at 30° C. was measured by monitoring the reduction of the dye at 600 nm (24, 25). For the overall BCKDC activity assay, the enzymes were exchanged into phosphate buffer (30 mM potassium phosphate, pH 7.5) containing 5 mM DTT using a PD-10 column and the enzyme concentrations were calculated from the absorption maxima at 280 nm. The protein complex was reconstituted with E1, lipoylated E2 (lip-E2) and E3 at a molar ratio of 12:1:55, in which lip-E2 exists as a 24-mer. The assay mixture contained 30 mM potassium phosphate pH 7.5, 100 mM NaCl, 3 mM NAD^+, 0.4 mM CoA, 2 mM MgCl2, 2 mM DTT, 0.1% Triton X-100, and 2 mM ThDP. The overall reaction was monitored by formation of NADH at 340 nm. The apparent rate constants (kapp) at different substrate concentrations for all of the above assays were determined from the absorption changes at the individual wavelength maximum. The kapp rate constants were fit using the following equation: kapp=kcat[S]/(Km+[S])
# The phosphorylation of E1 was carried out in the phosphorylation reaction mix (30 mM HEPES, pH 7.4, 2 mM DTT, 1.5 mM MgCl2, and 0.2 mM EGTA) with and without addition of phenylbutyrate. E1, E2, and E3 proteins were mixed at 12:1:55 molar ratio in a 0.1 ml reaction mix, and 0.1 μg of maltose-binding protein-tagged rat BCKDC kinase (BDK) was added. The mix was pre-incubated at room temperature for 15 minutes. The phosphorylation reaction was started after addition of 0.4 mM ATP to the reaction mix, and the reaction was terminated at different time points by addition of higher salt concentration. Overall BCKDC activity was measured as described above.
# [2] = test system: E1α-phospho/E1α, E2, BCATm, BCATc; assay: Western blotting of BCKD complex and BCAT isozymes in lymphoblast cells; type: cell-based, human
# [3] = target: T1, BCKDC (Homo sapiens, UniProt P12694+P21953); assay: Leucine oxidation in lymphoblast cells in presence of CIC; type: cell-based; parameters: Transformed lymphoblast cell lines were available from all 5 MSUD patients and from 2 controls to measure BCKDC activity; endogenous in cells; settings: control lymphoblasts, 1 mM phenylbutyrate 48 h, 1 mM CIC in the assay
# T1 sequence (P12694 46-445): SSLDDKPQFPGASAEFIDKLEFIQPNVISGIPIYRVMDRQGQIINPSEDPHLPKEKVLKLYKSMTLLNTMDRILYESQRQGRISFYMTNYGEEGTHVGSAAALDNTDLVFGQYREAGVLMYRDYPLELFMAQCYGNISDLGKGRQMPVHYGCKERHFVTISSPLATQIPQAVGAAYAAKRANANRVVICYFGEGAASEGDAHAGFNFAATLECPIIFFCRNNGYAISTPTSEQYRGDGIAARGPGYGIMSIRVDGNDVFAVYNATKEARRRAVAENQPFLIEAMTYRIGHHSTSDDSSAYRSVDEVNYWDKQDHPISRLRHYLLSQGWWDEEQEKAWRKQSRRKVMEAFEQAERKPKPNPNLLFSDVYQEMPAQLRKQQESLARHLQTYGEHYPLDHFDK
# T1 sequence (P21953 51-392): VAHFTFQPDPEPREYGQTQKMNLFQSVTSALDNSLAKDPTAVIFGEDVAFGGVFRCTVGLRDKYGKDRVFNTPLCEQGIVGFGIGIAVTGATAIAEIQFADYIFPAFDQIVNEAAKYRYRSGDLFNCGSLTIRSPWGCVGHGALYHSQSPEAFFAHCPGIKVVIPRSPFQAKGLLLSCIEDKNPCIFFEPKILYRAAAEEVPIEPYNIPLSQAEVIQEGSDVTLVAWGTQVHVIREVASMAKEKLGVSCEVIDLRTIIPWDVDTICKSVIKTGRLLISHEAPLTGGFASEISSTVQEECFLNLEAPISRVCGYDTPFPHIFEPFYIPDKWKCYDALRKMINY
# Protocol: FIGS. 8A-8C. FIGS. 8A and 8B show leucine oxidation in presence of CIC in lymphoblast cells from control subjects (C-660, C-661) and MSUD patients (P-1, -2, -3, -4, -5) untreated or treated with 1 mM phenylbutyrate for 48 h. Leucine oxidation was measured by using radioactive assay as described in Materials and Methods and is expressed in pmol CO2 released/min/mg protein. CIC was added to all reactions in 1 mM concentration. Values are means±SD (n=3), * p≥0.05, **p≥0.01. […] Images are representative of two independent experiments.
# Because phenylbutyrate affects E1α phosphorylation state in vivo (see FIG. 5), leucine oxidation was measured in the same cell lines as in FIG. […] with CIC in the assay. […] Changes in BCAT isoenzyme activity also impacts BCKA production, in specific cases. All patient cell lines accumulated more KIC than observed in control cell lines.
structure (smiles),measurement,setting,value
"O=C([O-])CCCc1ccccc1.[Na+] [phenylbutyrate, sodium 4-phenylbutyrate]",phosphorylation and inactivation of E1 in the presence of BCKDC kinase,[1],prevent completely
same,"kcat, KIC",[1]; [+] BDK,20.6 ± 2.5 min⁻¹
same,"kcat, KIV",[1]; [+] BDK,26.0 ± 2.2 min⁻¹
same,"kcat, KMV",[1]; [+] BDK,22.0 ± 1.8 min⁻¹
same,Km,"[1]; [+] BDK, read-out: Km, KIC",21 ± 1.9 µM
same,Km,"[1]; [+] BDK, read-out: Km, KIV",25 ± 2 µM
same,Km,"[1]; [+] BDK, read-out: Km, KMV",21 ± 3 µM
same,"kcat, KIC",[1]; [−] BDK,19.8 ± 1.7 min⁻¹
same,"kcat, KIV",[1]; [−] BDK,28.0 ± 1.9 min⁻¹
same,"kcat, KMV",[1]; [−] BDK,20.0 ± 1.1 min⁻¹
same,Km,"[1]; [−] BDK, read-out: Km, KIC",27 ± 2 µM
same,Km,"[1]; [−] BDK, read-out: Km, KIV",20 ± 3 µM
same,Km,"[1]; [−] BDK, read-out: Km, KMV",18 ± 2 µM
same,levels of cytosolic isozyme BCATc,"[2]; all of the lymphoblasts but patient 5, 1 mM 48 h",appeared to increase
same,levels of the mitochondrial isozyme BCATm,"[2]; both controls and patients 1 through 3, 1 mM 48 h",slightly elevated
same,phosphorylation state of E1α,"[2]; lymphoblasts from controls and patients 1, 2 and 3, 1 mM phenylbutyrate 48 h","Neither the controls nor patients 1, 2 and 3 responded"
same,phosphorylation state of E1α,"[2]; lymphoblasts from patients 4 and 5, 1 mM phenylbutyrate 48 h, no apparent change in E1 levels",decrease
same,leucine oxidation,[3],increased
